The values that follow come from patent publication US20220273713A1, “METHOD OF INHIBITING OR ACTIVATING GAMMA DELTA T CELLS” (The University of Melbourne, priority 2019, published 2022).

Where “and” joins values, the source holds several entries; their conditions need not be identical. Identical values can stand only once.

In test [1] the target is G115 Vγ9Vδ2+ γδTCR, wild type, on cells. Put plainly: flow cytometry, tetramer-PE versus anti-CD3ε-APC on Jurkat G115 Vγ9Vδ2+ γδTCR cells.
The test system of test [2] is Vγ9Vδ2 cells. As to the kind of experiment: Luminex (Vγ9Vδ2): cytokine/chemokine secretion by pre-expanded Vγ9Vδ2 cells.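 Also: Vγ9Vδ2 cells purified from PBMC, activated 48 h with CD3 and CD28 plus IL-2, expanded 14 days in IL-2, then thawed and rested overnight in IL-2.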 It counts as cell-based, human. Particulars: 16 hrs, antibodies 10 μg/ml, Zoledronic acid 4 μM, HMBPP 0.5 ng/ml, duplicates, 0 set to 0.1.
Method: Briefly, Vγ9Vδ2 cells were isolated from 1 healthy donor (Red Cross Australia) and 1 cancer patient derived PBMC using TCRγ/δ+ T Cell Isolation Kit (Miltenyi). Cells were stimulated for 48 hours in TCRPMI supplemented with 100u/ml IL-2, CD3 (10 μg/ml) and CD28 (1 μg/ml). Cells were washed and grown for 14 days in TCRPMI supplemented with 100u/ml IL-2 at 37 degrees C. and 5% CO2, and then frozen down. […] Vγ9Vδ2 were defrosted and rested overnight in TCRPMI supplemented with 50u/ml IL-2 at 37 degrees C. and 5% CO2. […] All samples were run with appropriate controls and standards.
Test [3] concerns in vitro pre-expanded CD3+Vδ2+ γδ T cells. As to the kind of experiment: HMBPP or anti-CD3/anti-CD28 activation of purified in vitro-expanded Vδ2+ T cells ± neutralizing anti-BTN2A1 mAb. It counts as cell-based, human. The conditions noted are these: HMBPP 0.5 ng/ml, 10 μg/ml neutralizing anti-BTN2A1 mAb, no APCs. Here is the method:
CD25 expression was determined by flow cytometry, and IFN-γ concentration was determined by cytometric bead array (BD Bioscience) as per manufacturer instructions.

In test [4] the test system is γδ T cells. Put plainly: Identification of BTN2A1 agonistic antibodies: CD25 and interferon γ of expanded γδ T cells. It counts as cell-based, human. The conditions noted are these: 10 μg/ml antibody overnight, vs isotype control BM4. On the procedure:
In some experiments γδ T cells were enriched by MACS using PE-Cy7-conjugated anti-γδTCR followed by anti-phycoerythrin-mediated magnetic bead purification (Miltenyi Biotec). After enrichment CD3+Vδ2+ γδ T cells were further purified by sorting using an Aria III (BD). Enriched γδ T cells were stimulated in vitro for 48 h with plate-bound anti-CD3ε (OKT3, 10 ug/ml, Bio-X-Cell), soluble anti-CD28 (CD28.2, 1 ug/ml, BD Pharmingen), phytohemagglutinin (0.5 μg/ml, Sigma), IL-15 (50 ng/ml), and recombinant human IL-2 (100 U/ml, PeproTech), followed by maintenance with IL-2 and IL-15 for 14-21 d. Cells were cultured in complete medium consisting of a 50:50 (v/v) mixture of RPMI-1640 and AIM-V (Invitrogen) supplemented with 10% (v/v) FCS (JRH Biosciences), penicillin (100 U/ml), streptomycin (100 μg/ml), Glutamax (2 mM), sodium pyruvate (1 mM), nonessential amino acids (0.1 mM), and HEPES buffer (15 mM), pH 7.2-7.5 (all from Invitrogen Life Technologies), plus 50 μM 2-mercaptoethanol (Sigma-Aldrich).
The inventors screened the panel of antibodies specific for BTN2A1, as described above, to identify those able to agonise BTN2A1. The inventors assessed the ability of anti-BTN2A1 antibodies to activate γδ T cells. The inventors assessed upregulation of CD25 on the surface of previously expanded γδ T cells following culturing the cells with 10 μg/ml anti-BTN2A1 antibodies or isotype control antibody (BM4) overnight.
The inventors additionally measured levels of interferon γ secreted by γδ T cells following culture in the presence of 10 μg/ml anti-BTN2A1 antibodies or isotype control antibody (BM4) overnight. Interferon γ secretion is another indicator of TCR-dependent activation.

[5] abbreviates: γδT cells from patient 1 (melanoma patient).

As for “BTN2A1 tetramer-PE (biotinylated BTN2A1 ectodomain tetramerized with streptavidin-PE) (ligand)”, the cells in the BTN2A1 tetramer+ gate (%) in test [1] was determined as 100%.

For the molecule `O=P(O)(O)C(O)(Cn1ccnc1)P(=O)(O)O` [Zoledronate, zoledronate, reference compound], in test [2] (γδT cells from a healthy donor), the GMCSF is 254.29 pg/mL and 268.62 pg/mL; the ICAM-1 is 490.35 pg/mL and 504.11 pg/mL; the IFNγ is 58.38 pg/mL and 58.97 pg/mL; the IL-4 was 0.1 pg/mL. Further, in test [2] (γδT cells from a healthy donor), the IL-8 turned out to be 0.1 pg/mL; the IL-13 was 5.22 pg/mL and 4.43 pg/mL; the IL-17A worked out at 0.1 pg/mL; the MIP-1a was 121.61 pg/mL and 125.27 pg/mL. In test [2] (γδT cells from a healthy donor), the MIP-1b is 1280.91 pg/mL and 1334.19 pg/mL; the TNFα is 13.03 pg/mL and 13.02 pg/mL; the sE-selectin stood at 190.9 pg/mL; the sP-Selectin is 200.54 pg/mL and 313.85 pg/mL. In test [2] (setting [5]), the GMCSF was 650.17 pg/mL and 619.93 pg/mL; the ICAM-1 is 968.87 pg/mL and 888.51 pg/mL; the IFNγ is 175.86 pg/mL and 171.42 pg/mL; the IL-4 is 7.43 pg/mL and 7.68 pg/mL. In test [2] (setting [5]), the IL-8 amounted to 0.1 pg/mL; the IL-13 is 235.43 pg/mL and 219.81 pg/mL; the IL-17A is 3.5 pg/mL and 4.08 pg/mL; the MIP-1a is 274.25 pg/mL and 273.85 pg/mL. Moreover, in test [2] (setting [5]), the MIP-1b is 5061.49 pg/mL and 4756.68 pg/mL; the TNFα was 105.84 pg/mL and 102.44 pg/mL; the sE-selectin was 259.01 pg/mL and 287.88 pg/mL; the sP-Selectin is 1239.34 pg/mL and 1299.54 pg/mL.

“Glycosylated BTN2A1 tet. (simple glycans) (from UniProt Q7KYR7) (ligand)” displayed a cells in the BTN2A1 tetramer+ gate (%) in test [1] of 100%.

B1: clone 266: neutralizing anti-BTN2A1 mAb; VH SEQ ID NO: 124, VL SEQ ID NO: 125 (antibody, V domains shown)
VH: EVQLLESGGGLVQPGGSLRLSCAASGFTFSMYTMMWVRQAPGKGLEWVSGIGSSGGHTKYADSVKGRFTISRDNSKNTLYLQMNSLRAEDTAVYYCARYGHTFETWGQGTMVTVSS
VL: QYELTQPPSASGTPGQRVTISCSGSSSNIGSNYVYWYQQLPGTAPKLLIYRNNQRPSGVPDRFSGSKSGTSASLAISGLRSEDEADYYCAAWDDSLSGSYVFGTGTKVTVL
modifications: amino acid sequence of clone 266 VH; amino acid sequence of clone 266 VL
For B1, the “HMBPP-induced activation (CD25 upregulation, IFN-γ production)” value (shortened to “HMBPP-induced activation”) in test [3] is “failed to upregulate CD25 and produce IFN-γ”.

B2: antibody 244: agonistic anti-BTN2A1 antibody; VL SEQ ID NO: 140, VH SEQ ID NO: 144 (antibody, V domains shown)
VH: EVQLLESGGGLVQPGGSLRLSCAASGFTFSEYSMSWVRQAPGKGLEWVSRIGPSGGGTVYADSVKGRFTISRDNSKNTLYLQMNSLRAEDTAMYYCARLGRGAVAELDYWGQGTLVTVSS
VL: QSVLTQPHSVSESPGKTVTISCTRSSGRIGSNYVHWYQHLPGRAPKLLIYGNSNRPSGVPDRFSGSKSGTSASLAITGLQADDEADYYCQTYDNNVWVFGGGTKLTVL
modifications: amino acid sequence of the VH of antibody 244; amino acid sequence of the VL of antibody 244
For the molecule B2, in test [4], the “level of secreted interferon γ” value is “increase the level of secreted interferon γ” and the “percentage of γδ T cells expressing CD25” value is “increase the percentage of γδ T cells expressing CD25”.

B3: clone 267: anti-BTN2A1 mAb, partial inhibitor; VH SEQ ID NO: 132, VL SEQ ID NO: 133 (antibody, V domains shown)
VH: EVQLLESGGGLVQPGGSLRLSCAASGFTFSTYVMYWVRQAPGKGLEWVSSISPSGGLTVYVDSVKGRFTISRDNSKNTLYLQMNSLRAEDTAVYYCARVGYSSSDIWGQGTMVTVSS
VL: QYELTQPHSVSESPGKTVTISCTRNGGSIASNAVQWYQQRPGSAPITVIYDDSQRPSGVPDRFSGSIDSSSNTASLTISGLTTEDEADYYCLSFDTTSQIFGGGTKLTVL
modifications: amino acid sequence of clone 267 VH; amino acid sequence of clone 267 VL
For the molecule B3, the “HMBPP-induced activation” value in test [3] is “only a partial inhibitor”.

B4: clone 236: neutralizing anti-BTN2A1 mAb; VH SEQ ID NO: 116, VL SEQ ID NO: 117 (antibody, V domains shown)
VH: EVQLLESGGGLVQPGGSLRLSCAASGFTFSHYSMSWVRQAPGKGLEWVSGISSSGGFTPYADSVKGRFTISRDNSKNTLYLQMNSLRAEDTAVYYCTGGSGFDIWGQGTMVTVSS
VL: DIQMTQSPSTLSVSVGDRVTITCRASQTISSWLAWFQQKPGQAPKLLIYRASTLETGVPSRFSGSESGTTFTLTINGLQPDDLATYYCQQYATFPWTFGQGTKVEVK
modifications: amino acid sequence of clone 236 VH; amino acid sequence of clone 236 VL
B4: the “HMBPP-induced activation” value in test [3] was “failed to upregulate CD25 and produce IFN-γ”.
